Where “and” joins values, the source holds several entries; their conditions need not be identical. Equal values may be shown once. Read-outs that look alike come from different tables or passages of the source. Marks after values point to notes of the source that are not given here.
Tests used:
GABAC receptors = settings: Woodward et al, 1993, cited from earlier work; for Kb: read-out: KB (antagonist); for Kd: Johnston, 1996b, read-out: KD (agonist)
[1] = target: human r1 receptors (GABAC receptors) (Homo sapiens, UniProt P24046); experiment: Two-electrode voltage clamp recording of human r1 GABAC receptors expressed in Xenopus oocytes; settings: for EC50: r1 receptors in Xenopus oocytes, clamped at −60 mV; for IC50: IC50 (concentration that inhibits 50% of the response produced by 1 μM GABA), 1 μM GABA; for Mode of antagonism: Schild analysis; for Effect as agonist or antagonist at GABAC receptors: screened at 100 μM; for Activation of the receptor by compound alone / Effect on GABA response when co-applied with GABA (1 μM): FIG. 1
Protocol: The plasmid was linearized with XbaI and cRNA made using the “Message Machine” kit from Ambion Inc. (Austin, Tex., USA). 50 ng of cRNA was injected into defolliculated Stage V Xenopus oocytes. Two to seven days later, receptor activity was measured by two-electrode voltage clamp recording, using a Geneclamp 500 amplifier (Axon Instruments Inc., Foster City, Calif., USA) and a MacLab 2e recorder (ADInstruments, Sydney, NSW, Australia). […] For receptor activation measurements, the indicated concentrations of agonist and antagonist were added to ND96.

GABAA [2] = system: T1, GABAA; settings: Na-independent [3H]GABA binding (Johnston et al, 1978); read-out: GABAA receptor affinity, IC50; cited from earlier work
T1 construct: Activity at GABAA; other: Woodward et al, 1993; GABAA Kb; other: Ragozzino et al (1996); other: PMPA; source not given, column fo

GABAA [3] = system: T1, GABAA; settings: [3H]muscimol binding (Froestl et al, 1995a; 1995b), cited from earlier work; for IC50: read-out: GABAA receptor affinity, IC50
[4] = system: NMDA, benzodiazepine, quisqualate, kainate, muscarinic cholinergic, adrenergic, serotoninergic and histaminergic receptors; settings: 1 mM; cited from earlier work
GABAA [5] = settings: cited from earlier work
GABAB [6] = target: T2, GABAB (Rattus norvegicus, UniProt Q9Z0U4); design: from tissue; host or cells: rat cortical membranes / neocortical slices; values largely from the literature; settings: [3H]CGP27492 binding (Froestl et al; Bittiger et al; Olpe et al); read-out: GABAB receptor affinity, IC50; cited from earlier work
Target sequence in this assay (Q9Z0U4 17-960 limits assumed): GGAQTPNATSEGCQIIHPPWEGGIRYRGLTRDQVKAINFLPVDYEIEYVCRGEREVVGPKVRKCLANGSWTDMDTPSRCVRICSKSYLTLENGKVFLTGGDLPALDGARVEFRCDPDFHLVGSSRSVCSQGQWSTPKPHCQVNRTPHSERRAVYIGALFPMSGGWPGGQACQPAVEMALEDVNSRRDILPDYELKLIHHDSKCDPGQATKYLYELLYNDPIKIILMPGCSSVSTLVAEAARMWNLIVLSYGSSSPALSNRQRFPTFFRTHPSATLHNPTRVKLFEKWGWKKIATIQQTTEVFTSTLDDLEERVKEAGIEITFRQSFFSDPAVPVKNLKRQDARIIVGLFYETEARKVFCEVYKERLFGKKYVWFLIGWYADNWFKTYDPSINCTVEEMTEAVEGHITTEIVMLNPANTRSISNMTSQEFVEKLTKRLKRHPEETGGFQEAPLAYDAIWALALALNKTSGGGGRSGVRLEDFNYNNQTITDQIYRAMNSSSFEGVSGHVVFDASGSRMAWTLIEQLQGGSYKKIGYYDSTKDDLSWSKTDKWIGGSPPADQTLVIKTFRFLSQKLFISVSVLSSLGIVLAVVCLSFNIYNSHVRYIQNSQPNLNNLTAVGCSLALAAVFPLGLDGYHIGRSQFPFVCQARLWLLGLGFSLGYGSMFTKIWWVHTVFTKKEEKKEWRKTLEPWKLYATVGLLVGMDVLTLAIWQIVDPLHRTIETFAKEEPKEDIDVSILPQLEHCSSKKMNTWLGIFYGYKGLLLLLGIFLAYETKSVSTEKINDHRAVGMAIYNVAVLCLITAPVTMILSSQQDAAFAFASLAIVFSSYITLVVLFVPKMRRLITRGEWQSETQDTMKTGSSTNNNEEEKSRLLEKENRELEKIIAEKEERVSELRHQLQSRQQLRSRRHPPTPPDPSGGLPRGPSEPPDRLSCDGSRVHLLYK
Target sequence in this assay (O88871 41-940 partner): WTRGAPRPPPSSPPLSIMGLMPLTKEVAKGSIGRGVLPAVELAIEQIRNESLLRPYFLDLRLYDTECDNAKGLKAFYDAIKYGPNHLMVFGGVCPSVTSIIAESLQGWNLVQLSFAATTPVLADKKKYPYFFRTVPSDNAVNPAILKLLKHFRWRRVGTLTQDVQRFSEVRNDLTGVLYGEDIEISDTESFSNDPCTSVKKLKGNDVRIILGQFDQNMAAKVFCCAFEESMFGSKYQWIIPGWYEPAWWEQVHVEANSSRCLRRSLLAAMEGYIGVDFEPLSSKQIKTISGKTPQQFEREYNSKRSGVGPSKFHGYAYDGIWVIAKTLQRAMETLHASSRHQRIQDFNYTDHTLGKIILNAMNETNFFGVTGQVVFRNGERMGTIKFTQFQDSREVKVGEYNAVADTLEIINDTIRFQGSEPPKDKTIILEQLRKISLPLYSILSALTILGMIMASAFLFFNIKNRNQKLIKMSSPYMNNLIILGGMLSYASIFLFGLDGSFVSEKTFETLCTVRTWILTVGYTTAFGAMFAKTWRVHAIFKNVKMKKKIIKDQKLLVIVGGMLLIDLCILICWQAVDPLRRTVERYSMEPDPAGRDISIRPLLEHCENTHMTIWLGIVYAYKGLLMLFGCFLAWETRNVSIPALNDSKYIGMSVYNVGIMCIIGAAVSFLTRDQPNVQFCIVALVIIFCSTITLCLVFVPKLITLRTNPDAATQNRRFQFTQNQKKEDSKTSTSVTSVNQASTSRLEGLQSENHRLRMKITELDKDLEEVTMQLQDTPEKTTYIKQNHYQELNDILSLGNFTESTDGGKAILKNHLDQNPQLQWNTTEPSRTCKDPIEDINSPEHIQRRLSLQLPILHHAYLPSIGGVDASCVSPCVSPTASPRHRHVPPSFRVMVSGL

GABAC (human r1) = target: T3, GABAC (human r1) (Homo sapiens, UniProt P24046); settings: cited from earlier work
T3 construct: host or cells: Xenopus oocytes expressing human r1 mRNA

human rho-2 receptors = human rho-2 receptors (Homo sapiens, UniProt P28476); experiment: Antagonist KB at human homo-oligomeric rho-2 GABAC receptors; assay type: cell-based; settings: for Kb: human rho-2
GABAB [7] = target: T2, GABAB; experiment: Frequency of spontaneous discharges in neocortical slices, grease-gap recording; design: from tissue; host or cells: rat cortical membranes / neocortical slices; values largely from the literature; settings: read-out: GABAB receptor affinity
Target sequence in this assay (Q9Z0U4 17-960 limits assumed): as the sequence (Q9Z0U4 17-960 limits assumed) above
Target sequence in this assay (O88871 41-940 partner): as the sequence (O88871 41-940 partner) above

GABAA [8] = target: T1, GABAA; experiment: Inhibition of [3H]muscimol binding using rat cortical membranes; settings: PMPA; source not given, column footnote is [3H]muscimol binding; read-out: GABAA receptor affinity, IC50
GABAB [9] = target: T2, GABAB; design: from tissue; host or cells: hippocampal slices (pyramidal neurons); settings: bicuculline 20 μM; Ragozzino et al (1996); cited from earlier work
Target sequence in this assay (Q9Z0U4 20-960): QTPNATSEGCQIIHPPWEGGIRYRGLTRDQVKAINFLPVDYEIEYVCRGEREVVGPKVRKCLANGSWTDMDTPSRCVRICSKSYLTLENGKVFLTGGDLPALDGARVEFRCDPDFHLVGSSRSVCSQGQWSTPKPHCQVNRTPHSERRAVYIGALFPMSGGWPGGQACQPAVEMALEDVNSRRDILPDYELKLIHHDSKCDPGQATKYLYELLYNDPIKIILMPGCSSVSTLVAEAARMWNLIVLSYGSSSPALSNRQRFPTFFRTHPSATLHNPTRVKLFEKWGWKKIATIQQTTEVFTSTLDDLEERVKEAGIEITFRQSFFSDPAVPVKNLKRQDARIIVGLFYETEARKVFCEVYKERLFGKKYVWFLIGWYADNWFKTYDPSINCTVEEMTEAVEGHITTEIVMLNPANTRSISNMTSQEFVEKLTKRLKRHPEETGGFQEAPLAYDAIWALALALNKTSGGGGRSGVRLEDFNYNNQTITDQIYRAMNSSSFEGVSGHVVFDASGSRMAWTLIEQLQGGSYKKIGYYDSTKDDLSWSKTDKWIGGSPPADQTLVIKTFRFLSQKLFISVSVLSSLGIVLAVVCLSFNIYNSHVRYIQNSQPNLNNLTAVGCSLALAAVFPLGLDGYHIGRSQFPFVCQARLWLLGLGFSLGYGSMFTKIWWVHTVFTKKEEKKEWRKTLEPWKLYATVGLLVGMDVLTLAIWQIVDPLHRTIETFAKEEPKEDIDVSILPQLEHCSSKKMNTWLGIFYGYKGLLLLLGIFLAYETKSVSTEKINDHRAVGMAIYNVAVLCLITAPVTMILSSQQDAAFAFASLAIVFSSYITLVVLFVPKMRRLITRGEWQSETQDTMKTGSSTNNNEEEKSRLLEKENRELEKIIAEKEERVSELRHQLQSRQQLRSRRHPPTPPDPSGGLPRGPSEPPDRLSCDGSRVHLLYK
Target sequence in this assay (O88871 41-940 partner): as the sequence (O88871 41-940 partner) above

GABAA [10] = system: T1, GABAA; settings: Ragozzino et al (1996); cited from earlier work
male Swiss mice = experiment: Elevated plus-maze memory test; assay type: in vivo
Protocol: In this assay mice are trained by placing them at the end of the open arm of the plus maze and allowing them to find the shelter of the closed arms. The time taken is measured as the ‘latency’. Immediately after the trial the mice are injected with the test drug or with a saline control. […]

chicks = experiment: Memory consolidation in chicks, anthranilate-coated bead discrimination; assay type: in vivo, chick
Protocol: This procedure trains each chick on anthranilate-coated red beads, which have a bitter taste. In the test, 120 min. after the initial exposure to the red bead each chick is presented with a blue and a red bead, and normally will avoid pecking at the red bead; the discrimination ratio measures how well it remembers to do this. Chicks trained on 100% anthranilate-coated beads produce a discrimination ratio better than 0.9, and drug-induced memory deficits can be detected in this group. However, chicks trained on 20% anthranilate-coated beads produce a discrimination ratio of around 0.6, and this group can be used to detect drug-induced memory enhancement. Drugs are delivered by two bilateral intracranial injections (10 μL each).

[11] = Murata et al, 1996, Ragozzino et al

T3 sequence (P24046 22-479): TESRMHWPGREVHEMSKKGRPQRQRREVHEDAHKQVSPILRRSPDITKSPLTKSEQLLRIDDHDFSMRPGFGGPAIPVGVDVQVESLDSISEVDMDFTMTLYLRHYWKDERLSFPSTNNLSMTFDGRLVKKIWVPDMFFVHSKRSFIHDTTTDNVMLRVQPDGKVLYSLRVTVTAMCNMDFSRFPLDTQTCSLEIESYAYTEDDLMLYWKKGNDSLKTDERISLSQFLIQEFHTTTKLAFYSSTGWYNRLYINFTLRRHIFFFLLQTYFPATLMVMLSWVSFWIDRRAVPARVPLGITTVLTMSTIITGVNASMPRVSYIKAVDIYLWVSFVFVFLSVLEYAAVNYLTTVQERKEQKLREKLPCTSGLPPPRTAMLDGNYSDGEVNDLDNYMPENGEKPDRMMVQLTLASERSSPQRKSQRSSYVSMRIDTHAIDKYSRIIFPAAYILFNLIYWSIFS
Chain of human r1 receptors (GABAC receptors) (P24046 22-479): as above
Chain of human rho-2 receptors (P28476 21-465): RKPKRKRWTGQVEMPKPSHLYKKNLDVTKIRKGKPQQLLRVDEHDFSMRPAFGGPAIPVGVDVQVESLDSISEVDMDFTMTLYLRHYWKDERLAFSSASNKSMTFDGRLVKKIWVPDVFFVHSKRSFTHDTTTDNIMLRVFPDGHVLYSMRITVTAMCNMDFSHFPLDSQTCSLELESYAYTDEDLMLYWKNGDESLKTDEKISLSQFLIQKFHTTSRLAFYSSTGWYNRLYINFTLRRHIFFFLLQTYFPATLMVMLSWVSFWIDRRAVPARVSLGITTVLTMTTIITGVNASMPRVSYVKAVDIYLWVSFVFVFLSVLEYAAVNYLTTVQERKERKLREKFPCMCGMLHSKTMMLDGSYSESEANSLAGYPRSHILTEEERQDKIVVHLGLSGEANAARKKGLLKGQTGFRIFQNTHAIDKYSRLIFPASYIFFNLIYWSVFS

NCCCP(=O)(O)O [3-APA, 3-aminopropylphosphonic acid]
Kb (GABAC receptors): 10 µM

NC/C=C\C(=O)O [CACA, cis-4-aminocrotonic acid]
Activation of Cl− channel current by compound on its own [1]: activated the Cl^− channel | nH (Hill Coefficient) [1]: 2.2 ± 0.3 | EC50 ([1]; EC50 (effective dose that activates 50% of the maximal current)): 37.4 µM and 37 µM | Maximal dose current as % of the maximal GABA activated current [1]: 75% | IC50 (GABAA [2]): 25 µM | Kd (GABAC receptors): 74 µM

NCCC[PH](=O)O [CGP27492, 3-aminopropylphosphinic acid]
Activation of Cl− channel current by compound on its own [1]: did not activate any current on their own | Kb [1]: 3.2 ± 1 µM | Slope of Schild Plot [1]: 0.99 | nH (Hill Coefficient) [1]: 1.9 ± 0.2 | IC50 [1]: 2.47 ± 0.04 µM | Mode of antagonism [1]: competitive antagonists | nH of GABA curve in the presence of antagonist ([1]; [Antagonist] 10 μM): 2.3 ± 0.1 | nH of GABA curve in the presence of antagonist ([1]; [Antagonist] 30 μM): 2.4 ± 0.3 | nH of GABA curve in the presence of antagonist ([1]; [Antagonist] 100 μM): 2.5 ± 0.2 | IC50 (GABAA [3]): 1.7 µM | Kb (GABAC receptors): 1.8 µM

CP(=O)(O)CCCN [CGP35024, (3-aminopropyl)methylphosphinic acid]
Activation of Cl− channel current by compound on its own [1]: did not activate any current on their own | Kb [1]: 0.58 ± 0.14 µM | Slope of Schild Plot [1]: 1.14 | nH (Hill Coefficient) [1]: 1.8 ± 0.1 | IC50 [1]: 0.75 ± 0.07 µM | Mode of antagonism [1]: competitive antagonists | nH of GABA curve in the presence of antagonist ([1]; [Antagonist] 3 μM): 2.3 ± 0.1 | nH of GABA curve in the presence of antagonist ([1]; [Antagonist] 10 μM): 2.2 ± 0.2 | nH of GABA curve in the presence of antagonist ([1]; [Antagonist] 30 μM): 1.9 ± 0.2 | GABAA receptor affinity, IC50 (GABAA [3]): inactive at 10^k | Kb (GABAC receptors): 0.8 µM

CCOC(OCC)P(=O)(O)CCCN [CGP35348, 3-aminopropyl(diethoxymethyl)phosphinic acid]
Effect as agonist or antagonist at GABAC receptors [1]: no effect as either agonists or antagonists

CCCCP(=O)(O)CCCN [CGP36742, (3-aminopropyl)-n-butylphosphinic acid]
Effect at other receptor types [4]: no effect | IC50 (GABAA [5]): 500 µM

NC/C=C/[PH](=O)O [CGP38593, [(E)-3-aminopropen-1-yl]phosphinic acid]
Activation of Cl− channel current by compound on its own [1]: did not activate any current on their own | Kb [1]: 15.5 ± 1.7 µM | Slope of Schild Plot [1]: 0.95 | nH (Hill Coefficient) [1]: 1.8 ± 0.4 | Activation of the receptor by compound alone ([1]; 100 μM): do not activate the receptor | Effect on GABA response when co-applied with GABA (1 μM) ([1]; 100 μM): the GABA response is blocked or reduced | IC50 [1]: 7.7 µM and 7.68 µM | Mode of antagonism [1]: competitive antagonists | nH of GABA curve in the presence of antagonist ([1]; [Antagonist] 30 μM): 2.7 ± 0.1 | nH of GABA curve in the presence of antagonist ([1]; [Antagonist] 60 μM): 2.5 ± 0.4 | nH of GABA curve in the presence of antagonist ([1]; [Antagonist] 100 μM): 3.0 ± 0.1 | IC50 (GABAA [3]): 6.8 µM

CP(=O)(O)/C=C/CN [CGP44530, [(E)-3-Aminopropen-1-yl]methylphosphinic acid]
Activation of Cl− channel current by compound on its own [1]: did not activate any current on their own | Kb [1]: 8.6 ± 1.6 µM | Slope of Schild Plot [1]: 1.01 | nH (Hill Coefficient) [1]: 2.4 ± 0.5 | Activation of the receptor by compound alone ([1]; 100 μM): do not activate the receptor | Effect on GABA response when co-applied with GABA (1 μM) ([1]; 100 μM): the GABA response is blocked or reduced | IC50 [1]: 5.5 µM and 5.53 µM | Mode of antagonism [1]: competitive antagonists | nH of GABA curve in the presence of antagonist ([1]; [Antagonist] 10 μM): 2.6 ± 0.2 | nH of GABA curve in the presence of antagonist ([1]; [Antagonist] 30 μM): 3.0 ± 0.1 | nH of GABA curve in the presence of antagonist ([1]; [Antagonist] 100 μM): 3.7 ± 0.4 | GABAA receptor affinity, IC50 (GABAA [3]): inactive at 100 | IC50 (GABAB [6]): 0.65 µM

NCCCP(=O)(O)CC1CCCCC1 [CGP46381, 3-aminopropyl(cyclohexylmethyl)phosphinic acid]
Effect as agonist or antagonist at GABAC receptors [1]: no effect as either agonists or antagonists

NC[C@H](O)CP(=O)(O)CC1CCCCC1 [CGP51176, (2S)-3-amino-2-hydroxypropyl(cyclohexylmethyl)phosphinic acid]
Effect as agonist or antagonist at GABAC receptors [1]: no effect as either agonists or antagonists

C[C@H](NC[C@@H](O)CP(=O)(O)Cc1ccccc1)c1ccc(Cl)c(Cl)c1 [CGP55845A]
Effect as agonist or antagonist at GABAC receptors [1]: no effect as either agonists or antagonists

NC/C=C\[PH](=O)O [CGP70522, [(Z)-3-aminopropen-1-yl]phosphinic acid]
Activation of Cl− channel current by compound on its own [1]: did not activate any current on their own | Activation of the receptor by compound alone ([1]; 300 μM): do not activate the receptor | Effect on GABA response when co-applied with GABA (1 μM) ([1]; 300 μM): the GABA response is blocked or reduced | IC50 [1]: > 300 µM | Mode of antagonism [1]: competitive antagonists | IC50 (GABAA [3]): 6.6 µM

CP(=O)(O)/C=C\CN [CGP70523, [(Z)-3-aminopropen-1-yl]methylphosphinic acid]
Activation of Cl− channel current by compound on its own [1]: did not activate any current on their own | nH (Hill Coefficient) [1]: 1.6 ± 0.1 | Activation of the receptor by compound alone ([1]; 100 μM): do not activate the receptor | Effect on GABA response when co-applied with GABA (1 μM) ([1]; 100 μM): the GABA response is blocked or reduced | IC50 [1]: 38.9 µM and 38 µM | Mode of antagonism [1]: competitive antagonists | IC50 (GABAA [3]): 242 µM | IC50 (GABAB [6]): 16 µM

NCCCC(=O)O [GABA, γ-Aminobutyric acid]
Activation of Cl− channel current by compound on its own [1]: activated the Cl^− channel | nH (Hill Coefficient) [1]: 2.6 ± 0.2

O=C(O)C1=CCNCC1 [Isoguvacine]
EC50 (GABAC (human r1); data from Murata et al, 1996): 99 µM | IC50 (GABAA [2]): 1.4 µM

CP(=O)(O)C1CCNCC1 [PMPA, piperidine-4-(methyl)phosphinic acid]
Kb [1]: 6 ± 1.2 µM | IC50 [1]: 6 µM | Kb (human rho-2 receptors): 4.2 ± 0.2 µM | IC50 (GABAB [7]): > 1000 µM | IC50 (GABAA [8]): > 100 µM

NC/C=C/C(=O)O [TACA, trans-4-aminocrotonic acid]
Activation of Cl− channel current by compound on its own [1]: activated the Cl^− channel | nH (Hill Coefficient) [1]: 2.4 ± 0.2 | Maximal dose current as % of the maximal GABA activated current [1]: 95% | EC50 ([1]; read-out: EC50 (effective dose that activates 50% of the maximal current)): 0.44 ± 0.02 µM | IC50 (GABAA [2]): 0.14 µM | Kd (GABAC receptors): 0.6 µM

CP(=O)(O)C1=CCNCC1 [TPMPA]
EC50 (GABAB [9]): ~500 µM | Kb [1]: 2 ± 0.4 µM | Kb (GABAA [10]): 320 µM | Effect on latency (male Swiss mice; 50 mg/Kg, repeat experiment, tested only after 14 days, Swiss mice from a different source): significantly reduced latency | Effect on latency (male Swiss mice; 200 mg/Kg, first experiment, 14 day test): significantly reduces the latency | Kd (GABAC (human r1); Murata et al, 1996, Ragozzino et al, 1996, read-out: KD, GABAC receptor antagonist activity): 2.1 µM | Selectivity as antagonist for GABAC receptors over GABAB receptors (GABAC (human r1); [11]): more than 100 fold | Selectivity at GABAC receptors over GABAA receptors (GABAC (human r1); [11]): 500 fold | Kb (GABAC (human r1); data from Murata et al, 1996): 2.1 µM | IC50 (GABAC (human r1); read-out: Concentration producing 50% inhibition of GABAC receptor activation): 2.1 µM | Effect on memory (discrimination ratio) (chicks; 30 μM, intracranial injection, chicks trained with 20% anthranilate): enhances memory | Time of injection after training giving optimum effect (chicks; in vivo): ≤ 2.5 min | Potency at blocking rho-2 receptors relative to rho-1 GABAC receptors (human rho-2 receptors; human homo-oligomeric receptors): an order of magnitude less potent | Kb (human rho-2 receptors): 15.6 ± 1.6 µM

Source: patent US6632806B1, “Neurologically-active compounds” (The University of Sydney, priority 1997, dated 2003)
